Holding throughout (assay type): cell-based, human
One assay relates to WNT pathway. Description: Ex vivo culture of lesional vitiligo skin biopsies with WNT pathway activators, RT-qPCR of WNT family and LEF. Conditions: 14 days, stimulation every other day, CHIR99021 3 μM, LiCl 20 μM, SKL2001 40 μM. The procedure:
(§1) For vitiligo skin biopsies, after verification of the absence of melanocytes with Wood's lamp, two or three 6 mm biopsies composed of dermis plus epidermis were taken into lesional skin from vitiligo patients (n=9). The biopsies are rapidly put on transwell chamber of 0.4 μm (Becton Dickinson) and kept on semi liquid culture conditions in “Skin long term culture medium” (Biopredic). The skin was maintained at 37° C. in a wet 5% CO2, atmosphere.
(§2) The culture medium supplemented with Forskolin (Sigma Aldrich), LiCl (Sigma Aldrich), CHIR99021 (Calbiochem) or SKL2001 (Calbiochem) was changed […] during 14 days.
(§3) mRNA from melanocytes and keratinocytes was extracted with RNeasy kit (Qiagen). The biopsies are cut and disrupted with tissue ruptor (Qiagen) and the mRNA was extracted with RNeasy kit (Qiagen). cDNA were synthesized from 300 ng to 1 μg of mRNA with the Reverse Transcription System (Promega). Relative quantification of gene expression was measured by real time qPCR with Sybr green reagent (Life technology) on Step one system.
(§4) In order to induce the differentiation of melanocyte stem cells, they pharmacologically activated the WNT pathway in vitiligo skin cultured ex vivo as shown previously. They used two methods to activate the WNT pathway: a WNT agonist (SKL2001) and two GSK3β inhibitors: lithium chloride (LiCl) and a commercial specific inhibitor (CHIR99021). They biopsied 9 vitiligo subjects (6 mm punch) on diverse body locations ([…], 2 on trunk, 2 on leg, 1 on arm and 1 on axilla) and treated the ex vivo culture model during 14 days with a systemic stimulation every other day with the WNT activators.
(§5) They evaluated the activation of WNT pathway by the mRNA level of WNTs (TCF/LEF1 and the melanogenesis pathway by the mRNA level of MITF, DCT, PAX3 and BRn2) within the skin.

Assay [1] deals with melanocyte stem cells in depigmented skin from vitiligo patients. Description: Ex vivo depigmented vitiligo skin, immunohistostaining for co-expression of DCT and PAX3. Conditions: 14 days, every other day, SKL2001 40 μM, CHIR99021 3 μM, LiCl 20 μM, immunofluorescence. The procedure:
Depigmented skin from vitiligo patients [A (control culture medium)] were stimulated in ex vivo culture with WNT agonist SKL2001 (40 μM) (B), GSK3β inhibitor CHIR99021 (3 μM) (C) or GSK3β inhibitor LiCl 20 μM (D) every other day to activate the WNT pathway. After 14 days, the skin response was analyzed by immunohistostaining with pre-melanocytes markers: a DCT staining (green) and PAX3 staining (red).
as §1, §2
Biopsies were fixed with 4% formol, embedded in paraffin, cut with microtome of […] sections and fixed on superfrost plus slides (Thermoscientific). […]

Assay [2] deals with depigmented skin from vitiligo patients. Description: Ex vivo culture of lesional vitiligo skin biopsies, RT-qPCR of melanoblast / pre-melanocyte markers. Conditions: 14 days, SKL2001 40 μM; for mRNA level of early melanoblast marker Brn2 / mRNA level of early melanoblast marker PAX3: CHIR99021 3 μM, LiCl 20 μM. As for the experimental part:
as §1, §2, §3, §4, §5
For orientation: In qPCR the cycle at which signal appears reflects the starting amount.

In assay [3] the test system is whole skin in ex vivo culture. The assay is described as follows: Oxidative stress (H2O2) in whole skin in ex vivo culture: qPCR of LEF and WNT family. The conditions noted are these: skin biopsies ex vivo, 24 hours, 25 to 100 μM H2O2. The procedure:
(§6) NHM (A) and NHK (B) and whole skin in ex vivo culture (C) were stimulated 24 hours with 25 to 100 μM of H2O2. After mRNA extraction, a reverse transcription was performed and the relative gene expression of LEF1 was analyzed with qPCR.
(§7) (A) NHM, (B) NHK and (C) whole skin in ex vivo culture were stimulated 24 hours with 25 to 100 μM of H2O2. After mRNA extraction, a reverse transcription was performed and the relative gene expression of WNT family was analyzed with qPCR.
Skin from abdominoplasty surgery was used to the development of the ex vivo skin culture model. The subcutaneous fat was removed and biopsies of 6 mm were done in the skin composed of dermis and epidermis.
as §3

For the next assay, the system named is NHK (keratinocytes). The assay is described as follows: Oxidative stress (H2O2) in NHK: qPCR of LEF and WNT family, TCF/LEF luciferase reporter. The conditions noted are these: 24 hours, 25 to 100 μM H2O2. The procedure: as §6, §7
(§8) NHMs and NHKs are obtained from the foreskin of phototype IV children as described previously. Briefly, epidermal cells are obtained by overnight digestion of the skin in a dispase solution (Roche) at 4° C. followed by the digestion of the epidermis in a trypsin/EDTA solution during 20 minutes at 37° C. […]
(§9) mRNA from melanocytes and keratinocytes was extracted with RNeasy kit (Qiagen). […] Relative quantification of gene expression was measured by real time qPCR with Sybr green reagent (Life technology) on Step one system.
(§10) NHK and NHM were co-infected with the lentivirus TCF/LEF Reporter Luciferase and Cignal Lenti Reporter Control Renilla (Qiagen) and the infected cells were selected with Puromycin for 14 days. NHM and NHK selected were stimulated 24 h with SKL2001 and H2O2 and the TCF/LEF activity was measured with Dual Luciferase Reporter Assay System (Promega).

For another assay, the system named is NHM (melanocytes). The assay is described as follows: Oxidative stress (H2O2) in NHM: qPCR of LEF and WNT family, TCF/LEF luciferase reporter. The conditions noted are these: 24 hours, 25 to 100 μM H2O2. The procedure:
as §6, §7, §8, §9, §10

In the case of `Cc1c[nH]c(-c2cnc(NCCNc3ccc(C#N)cn3)nc2-c2ccc(Cl)cc2Cl)n1` [CHIR99021], in the assay with WNT pathway, the “relative expression of LEF mRNA” value is recorded as “increase” and the “relative expression of WNT family mRNA” value is listed as “increase”. In addition, the “co-expression of DCT and PAX3 (differentiation of melanocyte stem cells into pre-melanocytes)” value in assay [1] is listed as “melanoblast in differentiation within the dermis”. In assay [2], the “mRNA level of early melanoblast marker Brn2” value is reported as “up-regulated” and the “mRNA level of early melanoblast marker PAX3” value is reported as “up-regulated”.

In the case of `OO` [H2O2], in assay [3], the “expression of LEF” value is given as “decrease” and the “expression of most of the WNT family” value is recorded as “decrease”. In the assay with NHK (keratinocytes), the “expression of LEF” value is recorded as “decreased” and the “expression of the majority of WNT” value is “decreased”. In the assay on NHM (melanocytes), the “expression of LEF” value is listed as “decreased” and the “expression of the majority of WNT” value is “decreased”.

Take `O=C(NCCCn1ccnc1)c1cc(-c2ccco2)on1` [SKL2001]: in the assay on WNT pathway, the “relative expression of LEF mRNA” value is given as “increase” and the “relative expression of WNT family mRNA” value was “increase”. Further, the “co-expression of DCT and PAX3 (differentiation of melanocyte stem cells into pre-melanocytes)” value in assay [1] was “melanoblast in differentiation within the dermis”. Also, in assay [2], the “mRNA level of early melanoblast marker Brn2” value was “up-regulated”, the “mRNA level of early melanoblast marker PAX3” value is “up-regulated” and the “level of MITF mRNA” value was “increased”.

The values above are taken from patent US10632117B2, “GSK3B and uses thereof in the diagnostic and treatment of hypopigmentation disorders” (INSERM (INSTITUT NATIONAL DE LA SANTE ET DE LA RECHERCHE …, priority 2014, dated 2020).
